Data reported in BindingDB's records for doi:10.1038/nchembio.2195 (University of Texas M. D. Anderson Cancer Center, 2016).

What was measured:
Gamma-enolase = Gamma-enolase (Homo sapiens, UniProt P09104); test: Enolase Enzymatic Assays; conditions: pH 7.4
Procedure: (§1) Enolase activity was measured by two different methods: a fluorometric NADH-linked assay or adirect spectrophotometric assay via formation of PEP. In the fluorescent assay,enolase activity was measured via NADH oxidation in a pyruvate kinase-dehydrogenase coupled assay. The assay is conducted in 10 mM KCl, 5 mM MgSO4, and 100 mM triethanolamine at pH 7.4, with 400 uM NADH and 2 mM ADP. 2-PGA, pyruvate kinase (PK) and lactate dehydrogenase(LDH) are provided in excess, with conversion of 2-PGA to PEP by enolase being rate limiting. PEP (with ADP) is substrate of PK; pyruvate formed by thisreaction is linked to NADH oxidation by LDH. Enolase activity is determinedby fluorescence measurement of oxidation of NADH by excitation at 340 nmand emission at 460 nm. The substrate concentration was 5 mM 2-PGA unlessotherwise indicated. Fluorescence was measured using an Omega FluorescencePlate Reader (BMG Labtech). Alternatively, enolase activity was measured directly by the appearance of PEP from 2-PGA via absorption at 240 nm. The assay medium was the same, except that all the auxiliary reagents (PK or LDH, NADH and ADP) are omitted. Both assays were conducted in a 96-well plate format, with the direct assay performed in UV-transmissible plates.

Alpha-enolase = Alpha-enolase (Homo sapiens, UniProt P06733); test: Enolase Enzymatic Assays; conditions: pH 7.4
Alpha-enolase, sequence (P06733 whole entry): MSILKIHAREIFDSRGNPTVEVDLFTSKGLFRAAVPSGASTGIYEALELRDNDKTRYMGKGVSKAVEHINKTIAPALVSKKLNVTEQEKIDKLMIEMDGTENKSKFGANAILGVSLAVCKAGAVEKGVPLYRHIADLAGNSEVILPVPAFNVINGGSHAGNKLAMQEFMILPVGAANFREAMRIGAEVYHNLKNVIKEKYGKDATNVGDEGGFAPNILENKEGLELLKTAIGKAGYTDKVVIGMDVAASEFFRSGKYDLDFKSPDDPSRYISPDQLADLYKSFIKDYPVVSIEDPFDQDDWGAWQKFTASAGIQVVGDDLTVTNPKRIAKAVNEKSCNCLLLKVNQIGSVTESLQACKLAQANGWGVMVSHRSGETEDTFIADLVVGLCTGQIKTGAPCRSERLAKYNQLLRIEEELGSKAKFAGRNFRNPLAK
Procedure: as §1

Gamma-enolase, sequence (P09104 whole entry): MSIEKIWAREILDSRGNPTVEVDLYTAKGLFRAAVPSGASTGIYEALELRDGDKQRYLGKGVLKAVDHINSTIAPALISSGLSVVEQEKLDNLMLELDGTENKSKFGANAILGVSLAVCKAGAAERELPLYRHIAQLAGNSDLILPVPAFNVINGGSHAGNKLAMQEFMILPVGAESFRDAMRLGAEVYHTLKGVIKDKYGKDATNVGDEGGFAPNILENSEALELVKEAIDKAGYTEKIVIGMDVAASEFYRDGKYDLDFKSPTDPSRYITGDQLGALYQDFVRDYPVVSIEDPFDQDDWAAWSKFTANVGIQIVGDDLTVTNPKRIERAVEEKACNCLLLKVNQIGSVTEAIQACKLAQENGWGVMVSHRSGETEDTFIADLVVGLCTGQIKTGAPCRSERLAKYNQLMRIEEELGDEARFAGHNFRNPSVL

Row | Structure (SMILES) | IC50 (Gamma-enolase) [nM] | IC50 (Alpha-enolase) [nM]
1 | O=C1[C@@H](P(=O)(O)O)C[C@H](O)N1O [SF2312] | 42.5 | 37.9
2 | O=C(CP(=O)(O)O)NO [phosphonoacetohydroxamate (PhAH)] | 62.3 | 53.2
